# Test results: patent US20250262192A1, “PROGNOSTIC PATHWAYS FOR HIGH RISK SEPSIS PATIENTS” (KONINKLIJKE PHILIPS N.V., priority 2021, published 2025)
# Values joined by “and” are separate entries in the source; they are usually repeats but may differ in a detail not shown here. Identical values can stand only once. “Also recorded” adds a separate entry of the source.
# Legend:
# AR signaling pathway = assay: THP-1 sepsis treatment model, qPCR-based STP activity score; assay type: cell-based; settings: for Effect on AR PAS in LPS-stimulated THP-1 monocytes: THP-1 monocyte sepsis treatment model (Table 11); for Average AR STP activity score: 24 hours
# Description: (§1) In the treatment model the pathway inhibitor and LPS were added at the same time and the THP-1 cells were incubated for 24 hours prior to isolating RNA and determining pathway activities.
# (§2) For the first application, THP-1 cells were pre-incubated for 24 hours with the drug of choice, and subsequently LPS was added for 24 hours. For the treatment application, the drug and LPS were added simultaneously to the cells for 24 hours. Importantly: Some drugs needs processing in the body to become effective, this is the case for some of the androgen receptor (AR) pathway inhibitors, such as bicalutamide. In this case we have also tested the active variant of the drug (in the case of bicalutamide: (R-)bicalutamide).
# (§3) LPS is considered the main mediator of the sepsis symptoms. An in vitro experiment was designed where monocytes were stimulated with LPS and subsequently treated with a variety of inhibitors. Monocytes were chosen as they have been described to play a major role in sepsis, see for example Sukhacheva, [34], Clinical Laboratory Int. 26 Aug.
# (§4) Sepsis treatment model: For the treatment application, the drug and LPS were added simultaneously to the cells for 24 hours. Compounds and concentrations are described in Table 11 and Table 12 for healthy volunteer PBMCs.
# (§5) After stimulation cells were harvested and RNA was extracted using the RNeasy mini kit (Qiagen, 74104). qPCR-based STP activity scores were calculated using the Philips Research OncoSignal platform (www.philips.com/oncosignal), as described herein.
# (§6) Two concentrations of LPS 0.5 and 5 ng/ml were used in the experiments, furthermore for the THP-1 cell line an higher passage number (px-53-55) and a lower passage number (px-13-15) were used (Table 11). the THP-1 cell line with the lower passage was more reactive towards LPS activation compared to the higher passage number (data not shown).
# [1] = system: TGFbeta signaling pathway; assay: as above; assay type: cell-based; settings: for Average TGFb STP activity score: 24 hours; for Effect on TGFbeta PAS in LPS-stimulated THP-1 monocytes: THP-1 monocyte sepsis treatment model (Table 11)
# Description: as §1, §2, §3, §4, §5, §6
# AR pathway [2] = assay: PBMCs of healthy volunteers stimulated with LPS with or without drugs, pathway activity score; assay type: cell-based, human; settings: for Healthy volunteers showing AR PAS decrease: experiment 2, PBMCs, LPS 0.5 ng/ml + drug, Etanercept: not significantly; for AR PAS: PBMCs of individual healthy volunteers
# Description: as §4
# (§7) PBMC samples from healthy volunteers and sepsis patients were obtained via Tissue solutions. Briefly, cryopreserved PBMCs were first washed with washing buffer (PBS/1% BSA/2 mM EDTA), centrifuged and pellet resuspended in culture medium (RPM11640 without phenol red+8.5% charcoal stripped FBS+1% Glx+1% p/s). 0.5·10^5-1·10^6 cells were seeded per well in 24 wells plate and rested for 1 hour before treatment experiment. 10 PBMC samples from healthy donors were used to; (1) measure the baseline pathway levels, (2) activate with LPS
# (§8) PBMCs of healthy volunteers were stimulated with 5 ng/ml LPS for 24 hours in combination with (R)-Bicalutamide and (R)-Bicalutamide+Vactosertib (experiment 1). In experiment 2, (R)-Bicalutamide and etanercept were tested with 0.5 ng/ml LPS (Table 12A for exp 1 and Table 12B for exp 2).
# TGFbeta pathway [3] = assay: as above; assay type: cell-based, human; settings: for Healthy volunteers showing TGFbeta PAS decrease: experiment 2, PBMCs, LPS 0.5 ng/ml + drug, Etanercept: not significantly; for TGFbeta PAS: PBMCs of individual healthy volunteers
# Description: as §4, §7, §8
# TGFbeta pathway [4] = assay: PBMCs of sepsis patients treated in vitro 24 hours with inhibitors, pathway activity score; assay type: cell-based, human; design: scale not given here
# Description: as §7
# (§9) Sepsis treatment model: PBMC derived from sepsis patients (n=20) were treated 24 hours with compounds, DMSO or combination of compounds. (PBMC from healthy and sepsis patients are originating from the same hospital to minimize bias in sample prep). After stimulation cells were harvested and RNA was extracted using the RNeasy mini kit (Qiagen, 74104). qPCR was performed using the Philips Research OncoSignal platform.
# (§10) In total 18 PBMCs sepsis samples were treated for 24 hours with selected inhibitors (and combinations), 6 patient samples per experiment.
# AR pathway [5] = assay: as above; assay type: cell-based, human; design: AR Pathway activity scores of sepsis PBMC patients: scale not given here
# Description: as §7, §9, §10
# [6] = system: TGFbeta cellular signaling pathway; assay: THP-1 sepsis prevention model, qPCR-based STP activity score; assay type: cell-based
# [7] = system: AR cellular signaling pathway; assay: as above; assay type: cell-based
# AR pathway [8] = assay: MOLT-4 lymphoid cell line stimulated with LPS or DHT and inhibited with Bicalutamide or Enzalutamide (Table 9B); assay type: cell-based; settings: stimulated 5 hours and subsequently inhibited
# Description: (§11) MOLT-4 (ATCC CRL-1582) were cultured in RPMI1640 media, supplemented with 10% FBS, 1% glutamax and 1% pen strep at 37° C. 5% CO2.
# as §5
# TGFBeta pathway [9] = assay: as above; assay type: cell-based; settings: MOLT-4, stimulated 5 hours and subsequently inhibited
# Description: as §11, §5
# AR pathway [10] = assay: THP-1 cell line stimulated with LPS or DHT and inhibited with Bicalutamide or Enzalutamide (Table 9A); assay type: cell-based; settings: THP-1, stimulated 5 hours and subsequently inhibited
# Description: (§12) LPS is considered the main mediator of the sepsis symptoms. An in vitro experiment was designed where monocytes were stimulated with LPS and subsequently treated with a variety of inhibitors. […] 26 Aug.
# as §5
# TGFBeta pathway [11] = assay: as above; assay type: cell-based; settings: THP-1, stimulated 5 hours and subsequently inhibited
# Description: as §12, §5
# [12] = THP-1 px 13-15, LPS 0.5 ng/ml alone or with compound, (R)-Bicalutamide 25 uM, N-desmethyl Enzalutamide 2 uM, N-Desmethyl-Apalutamide 3 uM
# [13] = THP-1 px 13-15, LPS 0.5 ng/ml alone or with Etanercept 10 ug/ml
# [14] = THP-1 px 13-15, LPS 0.5 ng/ml alone or with compound, Vactosertib 1 uM, Etanercept 1 ug/ml, R-bicalutamide 25 uM + Etanercept 0.1 ug/ml, R-bicalutamide 25 uM + Filgotinib 10 uM
# [15] = experiment 2, LPS 0.5 ng/ml alone, + Etanercept 10 ug/ml, or + (R)-Bicalutamide 25 uM
# [16] = EXP 1, individual patient samples, Vactosertib 1 uM, Vactosertib 1 uM + R-bicalutamide 25 uM, Etanercept 10 ug/ml, R-bicalutamide 25 uM
# [17] = EXP 2, individual patient samples, Resatorvid 10 uM, D4-abiraterone 10 uM, A-485 100 nM, Galunisertib 10 uM
# [18] = THP-1 px 13-15, LPS 5 ng/ml alone or with Resatorvid 10 uM
# [19] = THP-1 px 53-55, LPS 0.5 ng/ml alone or with compound, (R)-Bicalutamide 25 uM, Ketodarolutamide 10 uM, D4-abiraterone 10 uM
# [20] = 24 hrs Vactosertib or DMSO, then 24 hrs LPS
# [21] = 24 hrs Vactosertib, then 24 hrs PBS
# [22] = DHT (25 nM) alone or + Bicalutamide (5 uM) or Enzalutamide (5 uM)
# [23] = LPS (50 ng/mL) alone or + Bicalutamide (5 uM) or Enzalutamide (5 uM)
# [24] = experiment 1, PBMCs, LPS 5 ng/ml + drug
# [25] = experiment 1, LPS 5 ng/ml 24 hours alone, + (R)-Bicalutamide 25 uM, or + (R)-Bicalutamide 25 uM + Vactosertib 1 uM
compound,measurement,setting,value
N#Cc1ncc(N2C(=O)C3(CCC3)N(c3ccc(C(N)=O)c(F)c3)C2=S)cc1C(F)(F)F [N-Desmethyl-Apalutamide],Effect on AR PAS in LPS-stimulated THP-1 monocytes,AR signaling pathway,could reduce
same,Average AR STP activity score,AR signaling pathway; [12],7.33 normalized scores
same,Average TGFb STP activity score,[1]; [12],13.33 normalized scores
O=C(Nc1nc2cccc(-c3ccc(CN4CCS(=O)(=O)CC4)cc3)n2n1)C1CC1 [Filgotinib],Effect on TGFbeta PAS in LPS-stimulated THP-1 monocytes,[1],could lower
Etanercept,Effect on AR PAS in LPS-stimulated THP-1 monocytes,AR signaling pathway,could reduce; also recorded: could be lowered
same,Average AR STP activity score,AR signaling pathway; [13],6.33 normalized scores
same,Average AR STP activity score,AR signaling pathway; [14],5.00 normalized scores and 6.00 normalized scores
same,Effect on TGFbeta PAS in LPS-stimulated THP-1 monocytes,[1],could lower; also recorded: could be lowered
same,Average TGFb STP activity score,[1]; [13],11.33 normalized scores
same,Average TGFb STP activity score,[1]; [14],9.67 normalized scores and 11.67 normalized scores
same,Healthy volunteers showing AR PAS decrease,AR pathway [2],2 out of 4
same,AR PAS,AR pathway [2]; [15],21 and 31 (2×) and 18
same,Healthy volunteers showing TGFbeta PAS decrease,TGFbeta pathway [3],3 out of 4
same,TGFbeta PAS,TGFbeta pathway [3]; [15],29 and 34 and 31 (2×)
same,TGFbeta Pathway activity scores of sepsis PBMC patients,TGFbeta pathway [4]; [16],42 and 30 and 31
same,AR Pathway activity scores of sepsis PBMC patients,AR pathway [5]; [16],28 and 20
CC1(C)C(=O)N(c2ccc(C#N)c(C(F)(F)F)c2)C(=S)N1c1ccc(C(N)=O)c(F)c1 [N-desmethyl Enzalutamide],Effect on AR PAS in LPS-stimulated THP-1 monocytes,AR signaling pathway,could reduce
same,Average AR STP activity score,AR signaling pathway; [12],6.67 normalized scores
same,Average TGFb STP activity score,[1]; [12],13.33 normalized scores
Cc1cccc(-c2nn3c(c2-c2ccnc4ccc(C(N)=O)cc24)CCC3)n1 [Galunisertib],AR Pathway activity scores of sepsis PBMC patients,AR pathway [5]; [17],23
CCOC(=O)C1=CCCC[C@H]1S(=O)(=O)Nc1ccc(F)cc1Cl [Resatorvid],Effect on AR PAS in LPS-stimulated THP-1 monocytes,AR signaling pathway,could reduce; also recorded: could be lowered
same,Average AR STP activity score,AR signaling pathway; [18],3.67 normalized scores
same,Effect on TGFbeta PAS in LPS-stimulated THP-1 monocytes,[1],could lower; also recorded: could be lowered
same,Average TGFb STP activity score,[1]; [18],8.00 normalized scores
same,TGFbeta Pathway activity scores of sepsis PBMC patients,TGFbeta pathway [4]; [17],31 and 37 and 35 and 34
same,AR Pathway activity scores of sepsis PBMC patients,AR pathway [5]; [17],24 and 31
CC(=O)c1cc(C(=O)N[C@@H](C)Cn2ccc(-c3ccc(C#N)c(Cl)c3)n2)[nH]n1 [Ketodarolutamide],Effect on AR PAS in LPS-stimulated THP-1 monocytes,AR signaling pathway,could reduce
same,Average AR STP activity score,AR signaling pathway; [19],2.33 normalized scores
same,Average TGFb STP activity score,[1]; [19],12.00 normalized scores
C[C@]12CCC(=O)C=C1CC[C@@H]1[C@@H]2CC[C@]2(C)C(c3cccnc3)=CC[C@@H]12 [D4-abiraterone],Effect on AR PAS in LPS-stimulated THP-1 monocytes,AR signaling pathway,could reduce
same,Average AR STP activity score,AR signaling pathway; [19],2.67 normalized scores
same,Effect on TGFbeta PAS in LPS-stimulated THP-1 monocytes,[1],could lower
same,Average TGFb STP activity score,[1]; [19],11.67 normalized scores
same,TGFbeta Pathway activity scores of sepsis PBMC patients,TGFbeta pathway [4]; [17],32 and 41 and 36 and 40
same,AR Pathway activity scores of sepsis PBMC patients,AR pathway [5]; [17],24 (3×) and 33
Cc1cccc(-c2[nH]c(CNc3ccccc3F)nc2-c2ccc3ncnn3c2)n1 [Vactosertib],Average AR STP activity score,AR signaling pathway; [14],8.67 normalized scores
same,Average TGFb STP activity score,[1]; [14],12.00 normalized scores
same,Average PAS TGFbeta,[6]; [20],9.3 normalized scores
same,Average PAS TGFbeta,[6]; [21],1.7 normalized scores
same,TGFbeta Pathway activity scores of sepsis PBMC patients,TGFbeta pathway [4]; [16],31
same,AR Pathway activity scores of sepsis PBMC patients,AR pathway [5]; [16],21 and 22
same,Patients showing reduction in the AR pathway (not significant),"AR pathway [5]; sepsis patient PBMCs, Etanercept 10 ug/ml in combination",2/3
same,Average PAS AR,[7]; [20],17.1 normalized scores
same,Average PAS AR,[7]; [21],3.8 normalized scores
same,Effect on the AR signaling pathway,[7]; Vactosertib pretreatment followed by LPS,No effect
CNC(=O)c1ccc(N2C(=S)N(c3ccc(C#N)c(C(F)(F)F)c3)C(=O)C2(C)C)cc1F [Enzalutamide],AR STP activity,AR pathway [8]; [22],7.3 normalized scores
same,AR STP activity,AR pathway [8]; [23],6.3 normalized scores
same,TGFbeta STP activity,TGFBeta pathway [9]; [22],14.1 normalized scores
same,TGFbeta STP activity,TGFBeta pathway [9]; [23],14.1 normalized scores
same,AR STP activity,AR pathway [10]; [22],6.0 normalized scores
same,AR STP activity,AR pathway [10]; [23],20.4 normalized scores
same,TGFbeta STP activity,TGFBeta pathway [11]; [22],17.3 normalized scores
same,TGFbeta STP activity,TGFBeta pathway [11]; [23],33.6 normalized scores
C[C@](O)(CS(=O)(=O)c1ccc(F)cc1)C(=O)Nc1ccc(C#N)c(C(F)(F)F)c1 [(R)-Bicalutamide],Effect on AR PAS in LPS-stimulated THP-1 monocytes,AR signaling pathway,could reduce
same,Average AR STP activity score,AR signaling pathway; [12],6.67 normalized scores
same,Average AR STP activity score,AR signaling pathway; [19],1.67 normalized scores
same,Effect on TGFbeta PAS in LPS-stimulated THP-1 monocytes,[1],could lower
same,Average TGFb STP activity score,[1]; [12],14.00 normalized scores
same,Average TGFb STP activity score,[1]; [19],11.67 normalized scores
same,Healthy volunteers showing AR decrease,AR pathway [2]; [24],3 out of 6
same,AR PAS,AR pathway [2]; [25],29 and 26 (2×) and 30 and 25 and 21
same,Healthy volunteers showing AR PAS decrease,AR pathway [2],3 out of 4
same,AR PAS,AR pathway [2]; [15],26 and 28 and 30 and 24
same,Healthy volunteers showing TGFbeta decrease,TGFbeta pathway [3]; [24],3 out of 6
same,TGFbeta PAS,TGFbeta pathway [3]; [25],29 and 32 and 35 and 31 and 27 and 40
same,Healthy volunteers showing TGFbeta PAS decrease,TGFbeta pathway [3],3 out of 4
same,TGFbeta PAS,TGFbeta pathway [3]; [15],31 and 35 and 33 and 32
same,TGFbeta Pathway activity scores of sepsis PBMC patients,TGFbeta pathway [4]; [16],31 and 32
same,AR Pathway activity scores of sepsis PBMC patients,AR pathway [5]; [16],21
